Laboratory results reported in patent US20230012420A1, “METHODS AND COMPOSTIONS FOR INHIBITING P97” (California Institute of Technology, priority 2021, published 2023).

Tests used:
Format in all cases: cell-based, human
[1] = test system: p97^R155H/+ MNs; assay: Western blot of dysregulated protein levels after p97 inhibitor treatment; conditions: 400 nM for 6 days, 20 dpm (FIG. 5C)
Method: The maturation of MNs was followed using a 14 day protocol from BrainXell. Briefly, the MNs were thawed and plated on poly-lysine (Sigma, cat #P7886) coated plates in MN maturation medium containing DMEM/F12 (Gibco, cat #11330-032) and neurobasal medium (1:1 v/v), 2% 50× B27, 1% 100× N2, 0.25% 100× Glutamax, 10 ng/mL BDNF (Peprotech, cat #450-02), 10 ng/mL GDNF(Peprotech, cat #450-10), 1 ng/mL TGF-β1 (Peprotech, cat #100-21c), and 1× Brainfast supplement (BrainXell). The medium was changed with the same medium containing 15 μg/mL geltrex on day 1. An equal volume of maturation medium (excluding Geltrex) was added on day 4. Half of the medium (excluding the Brainfast supplement and Geltrex) was changed twice weekly from day 7. The MNs can be maintained for at least three weeks. […] NMS-873, cat #406458), or same volume of DMSO at D14, and then incubated for 6 days. The cells were harvested on D20. MN cells were scraped off plates, washed with DPBS, and centrifuged at 300 g for 4 min to remove supernatant. Pellets were frozen at −80° C. Pellets were resuspended with 100 lysis buffer (50 mM Tris-HCl pH 8.0, 150 mM NaCl, 1% Triton X-100 with protease inhibitor tablet, 50 μM MG132, and 50 mM NEM), and incubated on ice for 10 min with occasional vortexing. After that, samples were centrifuged at 15000 rpm at 4° C. for 10 min and transferred 90 μL cell lysate into a 1.5 mL tube. Total soluble protein concentrations were measured using the Bradford test (Bio-Rad, cat #5000006). 30 μL 4×Laemmli sample buffer (Bio-Rad, cat #161-0774) was added and samples were boiled for 5 min. An equal amount of protein was loaded and separated using 4-20% Mini-PROTEAN TGX precast gels (Bio-Rad, cat #456-1096) and transferred to nitrocellulose membranes using Trans-Blot Turbo Transfer System (Bio-Rad, cat #170-4155). Membranes were blocked with 1×TBST with 5% w/v nonfat milk, incubated with primary antibodies for 2 h at room temperature or overnight at 4° C., and incubated with HRP-conjugated secondary antibodies (Bio-Rad, 1:3000 dilution) for 2 h at room temperature. […] The blot densities were analyzed using Image Lab 6.0.1 software (Bio-Rad).

[2] = test system: p97^R155H/+ MNs; assay: MN cell survival assay (Calcein AM live cell staining); conditions: 400 nM, treated at 14 dpm for 6 days, read at 20 dpm, vs DMSO (FIG. 5A)
Method: The maturation of MNs was followed using a 14 day protocol from BrainXell. Briefly, the MNs were thawed and plated on poly-lysine (Sigma, cat #P7886) coated plates in MN maturation medium containing DMEM/F12 (Gibco, cat #11330-032) and neurobasal medium (1:1 v/v), 2% 50× B27, 1% 100× N2, 0.25% 100× Glutamax, 10 ng/mL BDNF (Peprotech, cat #450-02), 10 ng/mL GDNF(Peprotech, cat #450-10), 1 ng/mL TGF-β1 (Peprotech, cat #100-21c), and 1× Brainfast supplement (BrainXell). The medium was changed with the same medium containing 15 μg/mL geltrex on day 1. An equal volume of maturation medium (excluding Geltrex) was added on day 4. Half of the medium (excluding the Brainfast supplement and Geltrex) was changed twice weekly from day 7. The MNs can be maintained for at least three weeks. […] NMS-873, cat #406458), or same volume of DMSO at D14, and then incubated for 6 days. The cells were harvested on D20. […] Cell viability was monitored every 3 or 4 days by staining with Calcein AM Viability Dye (Thermo, cat #65-0853-81), acquiring and analyzing images with ImageXpress Micro Confocal High-Content Imaging System (Molecular Devices). […] Cell viability was monitored at day 1 and day 14. […]

[3] = test system: iso p97^R155H/+ MNs; assay: MN cell survival assay (live cell staining), isogenic mutant line; conditions: 100 nM for 6 days, vs DMSO (FIG. 5B)
Method: To compare p97 WT and […]/+ cells, MNs were thawed and plated on poly-lysine coated 96-well plates (Greiner, cat #655090) at a density of 1000 cells per 100 μL per well in MN maturation medium as described in the “motor neuron differentiation and maturation” section. Medium was changed with 100 μL of the same medium containing 15 μg/mL geltrex on day 1. 100 μL additional medium (excluding Geltrex) was added on day 4. Half of the medium (excluding the Brainfast supplement and Geltrex) was changed on day 7 and 11. 200 nM Ara-C was added to inhibit non-MN cells from proliferating. On day 14, the medium was replaced with N2 medium (DMEM/F12 and neurobasal medium, 1:1 v/v, 1% 100× N2). N2 medium was changed every six days. Cell viability was monitored every 3 or 4 days by staining with Calcein AM Viability Dye (Thermo, cat #65-0853-81), acquiring and analyzing images with ImageXpress Micro Confocal High-Content Imaging System (Molecular Devices). For p97 inhibitor treatment, MNs were plated on poly-lysine coated 384-well plates (Greiner, cat #781946) at a density of 500 cells per 30 μL per well. The same medium was used for plating and maintaining cells. Cell viability was monitored at day 1 and day 14. […]

[4] = test system: p97^R155H/+ MNs; assay: Proteomic analysis (LC-MS/MS) of D20 MNs after p97 inhibitor treatment; conditions: for Tau and MCM6 (proteomics): 6 days of treatment, 400 nM; for number of the 440 downregulated proteins that were increased after treatment / number of the 920 upregulated proteins that were reduced after treatment: 6 days, count stated for treatment with CB-5083 or NMS-873 (FIG. 5E)
Method: The maturation of MNs was followed using a 14 day protocol from BrainXell. Briefly, the MNs were thawed and plated on poly-lysine (Sigma, cat #P7886) coated plates in MN maturation medium containing DMEM/F12 (Gibco, cat #11330-032) and neurobasal medium (1:1 v/v), 2% 50× B27, 1% 100× N2, 0.25% 100× Glutamax, 10 ng/mL BDNF (Peprotech, cat #450-02), 10 ng/mL GDNF(Peprotech, cat #450-10), 1 ng/mL TGF-β1 (Peprotech, cat #100-21c), and 1× Brainfast supplement (BrainXell). The medium was changed with the same medium containing 15 μg/mL geltrex on day 1. An equal volume of maturation medium (excluding Geltrex) was added on day 4. Half of the medium (excluding the Brainfast supplement and Geltrex) was changed twice weekly from day 7. The MNs can be maintained for at least three weeks. […] NMS-873, cat #406458), or same volume of DMSO at D14, and then incubated for 6 days. The cells were harvested on D20. After culture, MN cells were scraped off the plates, washed with DPBS, and centrifuged at 300 g for 4 min to remove supernatant. Pellets were frozen at -80° C. The mass spec samples were prepared by following instructions for the […] Sample Prep Kit (Thermo Scientific, cat #A4006). Samples were dried using a vacuum centrifuge and resuspended in 0.1% formic acid (Thermo, cat #85178) water solution. Peptide concentrations were measured using the Quantitative Fluorometric Peptide Assay kit (Thermo, cat #23290). LC-MS/MS experiments were performed by loading 0.5 μg sample onto an EASY-nLC 1000 (Thermo Scientific) connected to an Orbitrap Eclipse Tribrid mass spectrometer (Thermo Scientific). Peptides were separated on an Aurora UHPLC Column (25 cm×75 μm, 1.6 μm C18, AUR2-25075C18A, Ion Opticks) with a flow rate of 0.4 μL/min and a total duration time of 131 min following the gradient composed of 3% Solvent B for 1 min, 3-19% B for 72 min, 19-29% B for 28 min, 29-41% B for 20 min, 41-95% B for 3 min, and 95-98% B for 7 min. Solvent A consists of 97.8% H2O, 2% ACN, and 0.2% formic acid; solvent B consists of 19.8% H2O, 80% ACN, and 0.2% formic acid. MS1 scans were acquired with a range of 400-1600 m/z in the Orbitrap at 120 k resolution. The maximum injection time was 50 ms, and the AGC target was 2×105. The filter dynamic exclusion was set to exclude after 1 time, 30 s duration, and 10 ppm mass tolerance. MS2 scans were acquired with quadrupole isolation mode and higher-energy collisional dissociation (HCD) activation type in the Iontrap. The isolation window was 1.4 m/z, collision energy was 35%, maximum injection time was 35 ms, and the AGC target was 1×104. Other global settings were as below: ion source type, NSI; spray voltage, positive ion 2400 V, negative ion 600 V; ion transfer tube temperature, 300° C. Method modifications and data collection were performed using Xcalibur software (Thermo Scientific). Proteomic analysis was performed using Proteome Discoverer 2.4 (Thermo Scientific) software with the Uniprot human database and the SequestHT with Percolator validation. Protein abundance normalization was performed on total peptide. The data exported from PD2.4 were then used for further analysis. Limma analysis was performed using R studio following the user guide (Gordon, 2020). The volcano figures were plotted using Origin 2019b. PCA analyses were generated with PD2.4 and plotted using Prism 7. The Venn diagram was performed using FunRich 3.1. The heatmap figure was performed with prism 7. Functional enrichment analyses were performed with g:Profiler (Raudvere, 2019). The bubble plot was generated using Origin 2019b.

Structure (SMILES)	LC3 level (western blot) [1]	protein levels of ISL1, NES, Tau, pTau, MCM6, p53, y-H2Ax (western blot) [1]	loss of MNs (neuron loss, live cell staining) [2]	loss of MNs (neuron loss, live cell staining) [3]	Tau and MCM6 (proteomics) [4]	number of the 440 downregulated proteins that were increased after treatment [4]	number of the 920 upregulated proteins that were reduced after treatment [4]
Cc1cc2c(C(N)=O)cccc2n1-c1nc2c(c(NCc3ccccc3)n1)COCC2 [CB-5083]	slightly elevated	reversed increases	significantly reduced the loss of MNs	significantly reduced the loss of MNs	reduced	192	428
Cc1cc(OCc2nnc(SC3CCCC3)n2-c2cccnc2)ccc1-c1ccc(S(C)(=O)=O)cc1 [NMS-873, 3-[3-cyclopentylsulfanyl-5-[[3-methyl-4-(4-methylsulfonylphenyl)phenoxy]methyl]-1,2,4-triazol-4-yl]pyridine]	slightly elevated	reversed increases	significantly reduced the loss of MNs	significantly reduced the loss of MNs	reduced	192	428
